Here are results for twelve molecules from patent US5965744A, “Ortho-substituted benzoylguanidines, including composition and methods of using them” (priority 1993, dated 1999).

SMILES strings stand for the structures. Where a name gives a salt, the structure may show the parent alone.

Series [1] concerns the target T1, Na^+ /H^+ Exchanger of Rabbit Erythrocytes (Oryctolagus cuniculus, UniProt P23791).
T1 construct: The blood was removed from the aural arteries; endogenous in cells; host or cells: erythrocytes of cholesterol-fed New Zealand White rabbits (whole blood samples)
Nature of the series: Inhibition of the Na^+ /H^+ Exchanger of Rabbit Erythrocytes (Na^+ influx by flame photometry). The settings on record: cholesterol-fed rabbits, pH 7.4, 37° C. It is filed as cell-based, rabbit (New Zealand White). From the text:
Inhibition of the Na^+ /H^+ Exchanger of Rabbit Erythrocytes
New Zealand White rabbits (Ivanovas) received a standard diet containing 2% cholesterol for six weeks in order to activate the Na^+ /H^+ exchange and thus to be able to determine, by flame photometry, the Na^+ influx into the erythrocytes via Na^+ /H^+ exchange. The blood was removed from the aural arteries and rendered incoagulable using 25 IU of potassium heparin. A part of each sample was used for the duplicate determination of the hematocrit by means of centrifugation. Aliquots of in each case 100 μl were used for measuring the initial Na^+ content of the erythrocytes.
In order to determine the amiloride-sensitive sodium influx, 100 μl of each blood sample were in each case incubated, at pH 7.4 and 37° C., in 5 ml of a hyperosmolar salt/sucrose medium (mmol/l: 140 NaCl, 3 KCl, 150 sucrose, 0.1 ouabain, 20 tris(hydroxymethyl)aminomethane). The erythrocytes were then washed three times with ice-cold MgCl2 /ouabain solution ([…]: 112 MgCl2, 0.1 ouabain) and hemolyzed in 2.0 ml of distilled water. The intracellular sodium content was determined by flame photometry.
The net influx of Na^+ was calculated from the difference between the initial sodium values and the sodium content of the erythrocytes following incubation. The amiloride-inhibitable sodium influx was calculated from the difference in the sodium content of the erythrocytes following incubation with and without amiloride 3×10^-4 mol/l. This method was also employed in the case of the compounds according to the invention.

Another series concerns rat hearts. Conditions: isolated rat hearts, cited from earlier work.
The subject of another series is cardiac arrhythmia. Conditions: cited from earlier work.

T1 sequence (P23791 whole entry): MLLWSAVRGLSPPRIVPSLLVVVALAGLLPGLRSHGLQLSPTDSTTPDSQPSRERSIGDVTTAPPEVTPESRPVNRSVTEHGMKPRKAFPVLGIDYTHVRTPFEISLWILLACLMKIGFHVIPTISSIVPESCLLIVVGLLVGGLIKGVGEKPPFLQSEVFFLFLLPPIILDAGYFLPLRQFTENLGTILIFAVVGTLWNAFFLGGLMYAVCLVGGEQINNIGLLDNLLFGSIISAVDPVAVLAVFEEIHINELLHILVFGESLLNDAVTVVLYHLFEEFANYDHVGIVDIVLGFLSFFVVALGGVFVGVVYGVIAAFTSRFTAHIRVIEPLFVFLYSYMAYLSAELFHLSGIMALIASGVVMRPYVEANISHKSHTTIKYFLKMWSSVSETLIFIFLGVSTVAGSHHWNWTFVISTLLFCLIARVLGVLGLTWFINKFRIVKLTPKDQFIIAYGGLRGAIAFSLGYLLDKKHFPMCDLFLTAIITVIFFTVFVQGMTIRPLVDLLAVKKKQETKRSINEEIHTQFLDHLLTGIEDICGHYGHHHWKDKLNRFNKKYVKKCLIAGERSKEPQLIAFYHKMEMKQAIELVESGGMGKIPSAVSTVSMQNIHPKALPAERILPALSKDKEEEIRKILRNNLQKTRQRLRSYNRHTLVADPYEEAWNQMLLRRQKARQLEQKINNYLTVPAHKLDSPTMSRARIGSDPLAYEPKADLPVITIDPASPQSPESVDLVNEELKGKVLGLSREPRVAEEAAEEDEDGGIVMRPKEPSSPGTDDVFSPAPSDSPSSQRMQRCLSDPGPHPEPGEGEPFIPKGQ

The term IC50 denotes the concentration that inhibits the measured activity by half. A high value points to weaker potency in that assay. `N=C(N)NC(=O)c1cccc(Cl)c1Cl` [Example 1, 2,3-Dichlorobenzoylguanidine hydrochloride] yielded an IC50 in series [1] above 1000 nM. For the molecule `N=C(N)NC(=O)c1cccc(C(F)(F)F)c1F` [Example 2, 2-Fluoro-3-trifluoromethylbenzoylguanidine hydrochloride], the concentration for half-maximal inhibition (IC50) in series [1] was determined as 2000 nM. The same measure, in the same setting: as for `N=C(N)NC(=O)c1ccc(Cl)cc1Cl` [Example 3, 2,4-Dichlorobenzoylguanidine hydrochloride], the figure is 8000 nM; as for `N=C(N)NC(=O)c1ccc(C(F)(F)F)cc1F` [Example 4, 2-Fluoro-4-trifluoromethylbenzoylguanidine hydrochloride], 3000 nM; as for `Cc1ccc(C)c(C(=O)NC(=N)N)c1` [Example 5, 2,5-Dimethylbenzoylguanidine hydrochloride], 2000 nM. The same measure, in the same setting: the value for `N=C(N)NC(=O)c1cc(Cl)ccc1Cl` [Example 6, 2,5-Dichlorobenzoylguanidine hydrochloride] was 1500 nM; that for `N=C(N)NC(=O)c1cc(C(F)(F)F)ccc1C(F)(F)F` [Example 7, 2,5-Bis(trifluoromethyl)benzoylguanidine hydrochloride] was 160 nM. Same read-out and setting: the value for `N=C(N)NC(=O)c1cc(C(F)(F)F)ccc1F` [Example 8, 2-Fluoro-5-trifluoromethylbenzoylguanidine hydrochloride] was 700 nM; that for `N=C(N)NC(=O)c1cc(C(F)(F)F)ccc1Cl` [Example 9, 2-Chloro-5-trifluoromethylbenzoylguanidine hydrochloride] was 160 nM.

With `N=C(N)NC(=O)c1cc(I)cc(C(F)(F)F)c1F` [Example 10, 2-Fluoro-5-iodo-3-trifluoromethylbenzoylguanidine hydrochloride], the midpoint of inhibition in series [1], the IC50, lay at 90 nM. Take `N=C(N)NC(=O)c1nc(Cl)c(N)nc1N` [amiloride, Amiloride]: the “suppression of artificially induced ventricular fibrillation” value in the series on rat hearts was “completely suppress”. For the same molecule, the “undesirable side effects when treating cardiac arrhythmia” value with cardiac arrhythmia (accompanying the antiarrhythmic effect) is “hypotensive and saluretic effects”. In the series on cardiac arrhythmia (as antiarrhythmic agent), the antiarrhythmic effect entry is “only weakly expressed”.

On to `CCN(c1nc(N)c(C(=O)NC(=N)N)nc1Cl)C(C)C` [ethylisopropylamiloride, Ethylisopropylamiloride], for which the “potency relative to amiloride in ventricular fibrillation model” value with rat hearts (compared with amiloride) was “even more potent than amiloride”.
